Consider 19 compounds from PubChem BioAssay (NCI).

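Dose response: 5 concentrations. Exposure: 48 h. Format: 96-well plates. Endpoint: linear interpolation; highest concentration if not reached. GI50 marks 50% less growth. The concentration for full growth arrest is given as TGI.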 Some results are limits rather than exact numbers.

For the first test, the system named is DU-145 prostate. Briefly: NCI-60 cell line screen, 48 h.
Turning to `CC1=CC(=O)[C@@H](O)[C@]2(C)[C@H]3[C@@]4(O)OC[C@]35[C@H]([C@@H](C)[C@H]4O)[C@@H](O)C(=O)O[C@@H]5C[C@@H]12`, the TGI is 1.69 µM.
`Nc1nc(N)c(N=Nc2ccc([As](=O)(O)O)cc2)c(=O)[nH]1` had a TGI above 100 µM.
Turning to `COc1ccc2[nH]cc(-c3nc(-c4c[nH]c5ncccc45)cs3)c2c1`, the GI50 is 5.69 µM and the TGI was above 100 µM.
As to `O=c1cc(-c2ccccc2)[nH]c2c(S)cccc12`, the TGI is above 100 µM.
`C=CCc1cccc(/C=N/NC(=O)CN2CCN(Cc3ccccc3)CC2)c1O`: the GI50 is 1.79 µM and the TGI turned out to be 13.4 µM.
`N#Cc1c(-c2ccc(F)cc2)c(-c2ccc(F)cc2)nn(CCO)c1=O` had a TGI of 4.42 µM.

In another test the test system is SR leukemia. Description: NCI-60 cell line screen, 48 h.
As for `Nc1nccc2c1ccn2-c1ccc(NC(=O)c2ccc(N3CCOCC3)c(C(F)(F)F)c2)cc1`, the GI50 is 0.684 µM and the TGI is above 100 µM.
For the compound `Cc1[nH]c2ccccc2c1-c1cc(-c2cc(-c3c(C)[nH]c4ccccc34)on2)no1`, the TGI was 96.7 µM.
For the compound `COc1cc(C2c3cc4c(cc3C(O)C(CO)C2CO)OCO4)cc(OC)c1OC` (stereo unspecified), the GI50 is 0.342 µM and the TGI was above 48.5 µM.
Turning to `COC1C(O)=C2C(=O)O/C(C)=C/C=C/C=C/C=C\CC(c3ccccc3)NC(=O)\C=C/C=C\C=C\C=C\[C@@]2(C)[C@@H]1O` (stereo partly specified), the TGI worked out at 0.165 µM.
As for `COc1ccc(-c2oc(=O)ccc2-c2cc(OC)c(OC)c(OC)c2)cc1F`, the GI50 is 1.57 µM and the TGI stood at 9.44 µM.
On the same counts, the results for `COC12C=C/C(=C(/C(=O)OCc3ccncc3)C(=O)CCCCCCCCC3(OC)C=C/C(=C(/C(=O)OCc4ccncc4)C(=O)CCCCCCCC1)O3)O2` are 0.191 µM and 7.01 µM.
`O=C1NC(=S)NNC12c1ccccc1-c1ccccc12` came in with a TGI above 10 µM.
Take `CC1=CC(=O)[C@@H](O)[C@]2(C)[C@H]3[C@@]4(O)OC[C@]35[C@H]([C@@H](C)[C@H]4O)[C@@H](O)C(=O)O[C@@H]5C[C@@H]12`: the TGI is above 100 µM.
Still for that read-out and setting: the figure for `Nc1nc(N)c(N=Nc2ccc([As](=O)(O)O)cc2)c(=O)[nH]1` is above 100 µM.
As for `COc1ccc2[nH]cc(-c3nc(-c4c[nH]c5ncccc45)cs3)c2c1`, the GI50 was 2.91 µM and the TGI is above 100 µM.
Consider `O=c1cc(-c2ccccc2)[nH]c2c(S)cccc12`, for which the TGI is above 100 µM.
Consider `C=CCc1cccc(/C=N/NC(=O)CN2CCN(Cc3ccccc3)CC2)c1O`, for which the GI50 is 0.772 µM and the TGI was determined as 4.24 µM.
With `N#Cc1c(-c2ccc(F)cc2)c(-c2ccc(F)cc2)nn(CCO)c1=O`, the TGI is above 100 µM.

The test system of a further test is SF-539 CNS. Briefly: NCI-60 cell line screen, 48 h.
As for `Nc1nccc2c1ccn2-c1ccc(NC(=O)c2ccc(N3CCOCC3)c(C(F)(F)F)c2)cc1`, the GI50 is 0.491 µM and the TGI is 5.96 µM.
The compound `Cc1[nH]c2ccccc2c1-c1cc(-c2cc(-c3c(C)[nH]c4ccccc34)on2)no1` gave a TGI above 100 µM.
On to `Cn1cnc([N+](=O)[O-])c1S(=O)(=O)Oc1ccccc1`, for which the GI50 was 14 µM and the TGI was 29.8 µM.
Regarding `COc1cc(C2c3cc4c(cc3C(O)C(CO)C2CO)OCO4)cc(OC)c1OC` (stereo unspecified), the GI50 is 0.335 µM.
`CCCNC(=S)/N=C/c1c(O)c2ccccc2[nH]c1=O` registered a TGI above 100 µM.
On the same count and under the same terms, to `COC1C(O)=C2C(=O)O/C(C)=C/C=C/C=C/C=C\CC(c3ccccc3)NC(=O)\C=C/C=C\C=C\C=C\[C@@]2(C)[C@@H]1O` (stereo partly specified) belongs 0.047 µM.
Turning to `COc1ccc(-c2oc(=O)ccc2-c2cc(OC)c(OC)c(OC)c2)cc1F`, the GI50 is 19.8 µM and the TGI stood at 80.3 µM.
For the compound `COC12C=C/C(=C(/C(=O)OCc3ccncc3)C(=O)CCCCCCCCC3(OC)C=C/C(=C(/C(=O)OCc4ccncc4)C(=O)CCCCCCCC1)O3)O2`, the GI50 was 0.877 µM and the TGI was 2.03 µM.
For the compound `CC(C)=CCc1cc(O)cc2c1OC(C=C(C)C)C1=C2C(=O)C2=C(NCCS2(=O)=O)C1=O` (stereo unspecified), the GI50 was 2.58 µM and the TGI turned out to be 4.82 µM.
The compound `O=C1NC(=S)NNC12c1ccccc1-c1ccccc12` had a TGI above 10 µM.
On to `Cc1csc(Nc2nc(-c3cccc(Br)c3)nc(C(Cl)(Cl)Cl)n2)n1`, for which the GI50 was 3.09 µM and the TGI is above 100 µM.
Compound `COc1c(OC)c(OC)c(C(=O)/C=C/c2ccccc2)c(OC)c1OC` had a TGI of 30.9 µM.
Regarding `NS(=O)(=O)c1ccc(N(/C=C/C(=O)C(F)(F)F)CC(=O)c2ccc(Cl)cc2)cc1`, the GI50 was 43.4 µM and the TGI is above 100 µM.
In the case of `CC1=CC(=O)[C@@H](O)[C@]2(C)[C@H]3[C@@]4(O)OC[C@]35[C@H]([C@@H](C)[C@H]4O)[C@@H](O)C(=O)O[C@@H]5C[C@@H]12`, the TGI was 0.261 µM.
On to `COc1ccc2[nH]cc(-c3nc(-c4c[nH]c5ncccc45)cs3)c2c1`, for which the GI50 is 4.88 µM and the TGI is above 100 µM.
As for `O=c1cc(-c2ccccc2)[nH]c2c(S)cccc12`, the TGI was above 100 µM.
For the compound `C=CCc1cccc(/C=N/NC(=O)CN2CCN(Cc3ccccc3)CC2)c1O`, the GI50 is 2.32 µM and the TGI was determined as 9.49 µM.
In the case of `N#Cc1c(-c2ccc(F)cc2)c(-c2ccc(F)cc2)nn(CCO)c1=O`, the TGI was 0.553 µM.

Another test has as its system HS 578T breast. Briefly: NCI-60 cell line screen, 48 h.
With `Nc1nccc2c1ccn2-c1ccc(NC(=O)c2ccc(N3CCOCC3)c(C(F)(F)F)c2)cc1`, the GI50 was 0.22 µM and the TGI was 0.88 µM.
`Cc1[nH]c2ccccc2c1-c1cc(-c2cc(-c3c(C)[nH]c4ccccc34)on2)no1`: the TGI came to 90.6 µM.
With `Cn1cnc([N+](=O)[O-])c1S(=O)(=O)Oc1ccccc1`, the GI50 is 24.6 µM and the TGI was above 80.5 µM.
As to `COc1cc(C2c3cc4c(cc3C(O)C(CO)C2CO)OCO4)cc(OC)c1OC` (stereo unspecified), the GI50 is 0.623 µM.
With `CCCNC(=S)/N=C/c1c(O)c2ccccc2[nH]c1=O`, the TGI is above 100 µM.
Consider `COC1C(O)=C2C(=O)O/C(C)=C/C=C/C=C/C=C\CC(c3ccccc3)NC(=O)\C=C/C=C\C=C\C=C\[C@@]2(C)[C@@H]1O` (stereo partly specified), for which the TGI stood at 0.0395 µM.
On to `COc1ccc(-c2oc(=O)ccc2-c2cc(OC)c(OC)c(OC)c2)cc1F`, for which the GI50 is 23.9 µM and the TGI is above 100 µM.
`COC12C=C/C(=C(/C(=O)OCc3ccncc3)C(=O)CCCCCCCCC3(OC)C=C/C(=C(/C(=O)OCc4ccncc4)C(=O)CCCCCCCC1)O3)O2`: the GI50 was 1.75 µM and the TGI is 15.4 µM.
